The record followed here is patent US7115667B2, “Ophthalmic fluid” (Planned Products Pty Ltd., priority 1999, dated 2006).

The subject of data set [1] is ocular substrate. Briefly: Subject's report on a gas permeable (hard) contact lens coated with 2–3 drops of the ophthalmic fluid. It counts as in vivo. The source says: (§1) In use, 2–3 drops of the ophthalmic fluid of the present invention are placed onto the inside surface of the contact lens. The ophthalmic fluid is then distributed to cover fully and evenly the inside surface of the contact lens by rubbing the ophthalmic fluid into the lens with a fingertip or any other suitable applicator. It is envisaged that the ophthalmic fluid will be biologically sterile. The inside of a contact lens was coated with 2–3 drops of the ophthalmic fluid of the present invention and fitted to the subject in the conventional manner. The subject reported on the perceived ease of inserting the coated lens, the subject's sensual reaction to the coated lens and the resulting vision through the coated lens, in relation to hard and soft contact lenses.

The subject of data set [2] is ocular substrate. Briefly: Subject's report on a hydrogel (soft) contact lens coated with 2–3 drops of the ophthalmic fluid. The format is in vivo.
From the text: as §1, with “The ophthalmic fluid of the present invention is suitable for use with gas permeable (hard) contact lenses or hydrogel (soft) contact lenses. In” for “In”

For the molecule `CCCCCC/C=C\CCCCCCCC(=O)OCC(COC(=O)CCCCCCC/C=C\CCCCCC)OC(=O)CCCCCCC/C=C\CCCCCC` [tripalmitolein, 1,2,3-tri(cis-9-hexadecenoyl)glycerol], in data set [1], the “sensation/discomfort caused by the edges of the lens on the eye” value is reported as “not reduced to the same extent”, the “subject's sensual reaction to the coated lens (comfort/irritation)” value is given as “could not feel the presence of the coated lens” and the “vision through the coated lens” value is reported as “excessively blurred”. In data set [2], the “vision through the coated lens” value is “blurred” and the “comfort once the coated lens was inserted” value is listed as “comfortable”.
Take `CCCCC/C=C\C/C=C\C/C=C\C/C=C\CCCC(=O)OCC(COC(=O)CCC/C=C\C/C=C\C/C=C\C/C=C\CCCCC)OC(=O)CCC/C=C\C/C=C\C/C=C\C/C=C\CCCCC` [triarachidonin, 1,2,3-tri(cis, cis, cis, cis, −5,8,11,14-eicosatetraenoyl)glycerol]: in data set [1], the “subject's sensual reaction to the coated lens (comfort/irritation)” value is “comfortable to wear”; the “tear production/expulsion and maceration” value is on record as “did not experience tear production or maceration”; the “vision through the coated lens” value was “excessively and persistently blurred”. Also, in data set [2], the “sensation upon insertion / amelioration of the normal discomfort when inserting a soft lens” value is “did not produce any noticeable improvement in the wearer's comfort”; the “tear production/expulsion and maceration” value was “increased tear production upon insertion of the soft lens, but no maceration”; the “vision through the coated lens” value was “clear vision”.
For `CCCCC/C=C\C/C=C\CCCCCCCC(=O)OCC(COC(=O)CCCCCCC/C=C\C/C=C\CCCCC)OC(=O)CCCCCCC/C=C\C/C=C\CCCCC` [trilinolein, 1,2,3-tri(cis, cis-9,12octadecadienoyl)glycerol], in data set [1], the “sensation/discomfort caused by the edges of the lens on the eye” value is reported as “not reduced to the same extent”; the “subject's sensual reaction to the coated lens (comfort/irritation)” value is reported as “could not feel the presence of the coated lens”; the “tear production/expulsion and maceration” value is recorded as “no tear expulsion”; the “time after which initially blurred vision cleared” value was “approximately 60 seconds”. In addition, the “vision through the coated lens” value in data set [1] is “initially experienced blurred vision”. In data set [2], the “sensation upon insertion / amelioration of the normal discomfort when inserting a soft lens” value is given as “noticeable amelioration of the normal discomfort”; the “tear production/expulsion and maceration” value is “no tear expulsion”; the “vision through the coated lens” value is listed as “immediately clear”; the “comfort once the coated lens was inserted” value was “could not feel the presence of the coated lens”.
Regarding `CC/C=C\C/C=C\C/C=C\CCCCCCCC(=O)OCC(COC(=O)CCCCCCC/C=C\C/C=C\C/C=C\CC)OC(=O)CCCCCCC/C=C\C/C=C\C/C=C\CC` [trilinolenin, 1,2,3-tri(cis, cis, cis −9,12,15-octadecatrienoyl)glycerol], in data set [1], the “subject's sensual reaction to the coated lens (comfort/irritation)” value is “extreme irritation”; the “tear production/expulsion and maceration” value is “increased tear production and maceration of the ocular substrate”; the “vision through the coated lens” value is “blurred”. Further, in data set [2], the “time after which initially blurred vision cleared” value came out at 2 min, the “vision through the coated lens” value is given as “initially experienced blurred vision” and the “comfort once the coated lens was inserted” value is recorded as “comfortable to wear”.
